Assay results from article PMC4331650 (Biochimica et Biophysica Acta, 2014).
Numbering of substitutions follows the chain as printed. Several values for one entry are separate records, joined by “and”; a condition that tells them apart may be missing. Equal entries are not always repeated.

What was measured:
WT CLC-Ka = molecular target: T1, WT CLC-Ka (Homo sapiens, UniProt P51800); settings: Xenopus oocytes; cited from earlier work
T1 sequence (P51800 1-687): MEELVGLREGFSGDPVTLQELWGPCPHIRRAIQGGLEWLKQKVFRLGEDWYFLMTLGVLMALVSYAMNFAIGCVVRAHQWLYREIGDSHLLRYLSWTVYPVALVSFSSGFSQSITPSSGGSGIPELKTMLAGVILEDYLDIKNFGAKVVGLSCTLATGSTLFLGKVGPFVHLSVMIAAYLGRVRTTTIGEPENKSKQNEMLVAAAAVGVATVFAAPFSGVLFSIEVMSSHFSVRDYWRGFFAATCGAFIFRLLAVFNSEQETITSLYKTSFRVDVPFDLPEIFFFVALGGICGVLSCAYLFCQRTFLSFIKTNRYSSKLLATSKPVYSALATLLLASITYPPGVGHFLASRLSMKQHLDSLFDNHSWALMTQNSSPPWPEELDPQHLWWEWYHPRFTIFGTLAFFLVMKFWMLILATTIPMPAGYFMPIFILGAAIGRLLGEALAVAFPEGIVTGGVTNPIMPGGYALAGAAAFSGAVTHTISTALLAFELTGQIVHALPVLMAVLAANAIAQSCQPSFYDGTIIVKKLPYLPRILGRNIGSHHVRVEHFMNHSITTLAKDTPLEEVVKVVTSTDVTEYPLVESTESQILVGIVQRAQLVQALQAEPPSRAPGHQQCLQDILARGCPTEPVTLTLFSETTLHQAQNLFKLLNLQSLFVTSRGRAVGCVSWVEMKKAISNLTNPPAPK
T1 sequence (Q8WZ55 1-320 Y98A partner): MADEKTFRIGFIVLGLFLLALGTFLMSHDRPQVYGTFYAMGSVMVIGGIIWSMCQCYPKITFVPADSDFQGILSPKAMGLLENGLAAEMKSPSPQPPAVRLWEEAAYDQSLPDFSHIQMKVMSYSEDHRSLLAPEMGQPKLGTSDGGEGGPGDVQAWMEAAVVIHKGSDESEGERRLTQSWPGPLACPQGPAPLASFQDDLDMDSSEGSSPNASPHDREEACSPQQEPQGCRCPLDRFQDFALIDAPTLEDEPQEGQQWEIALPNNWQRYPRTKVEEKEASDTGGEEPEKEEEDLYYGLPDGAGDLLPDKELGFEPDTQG

CLC-1 = settings: negative potentials; cited from earlier work
CLC-0 = settings: negative potentials; cited from earlier work
N257A CLC-Ka [1] = molecular target: T2, N257A CLC-Ka (Homo sapiens, UniProt P51800, N257A); assay type: cell-based; settings: 100 μM CPAint; negative voltages
T2 sequence (P51800 1-687 N257A): T1 sequence (P51800 1-687) with N257A
T2 sequence (Q8WZ55 1-320 Y98A partner): T1 sequence (Q8WZ55 1-320 Y98A partner)

N257A CLC-Ka [2] = molecular target: T2, N257A CLC-Ka; assay type: cell-based; settings: 50 μM CPA, intracellular; −100 mV

SMILES	effect on CLC-Ka (WT CLC-Ka)	effect on CLC-1 currents (CLC-1)	effect on CLC-0 currents (CLC-0)	effect of CPA on currents (N257A CLC-Ka [1])	amplitude of predominant conductance level in the presence of CPA (N257A CLC-Ka [2])
O=S(=O)(O)c1cc(N=C=S)ccc1C=Cc1ccc(N=C=S)cc1S(=O)(=O)O [DIDS]	inhibit				
O=C(O)COc1ccc(Cl)cc1 [CPA, p-chlorophenoxy-acetic acid]		block	block	inhibits	~ 0.66 pA and 0.66 pA
O=C(O)c1ccccc1Nc1cccc(C(F)(F)F)c1 [flufenamic acid]	inhibit				
